Laboratory results: patent US20260158050A1, “USE OF EIDD-1931 OR DERIVATIVE THEREOF IN TREATMENT OF ENTEROVIRUS INFECTION” (ACADEMY OF MILITARY MEDICAL SCIENCES, priority 2022, published 2026)

Assays:
[1] = test system: EV-A71 VP1 protein; assay: inhibition of EV-A71 VP1 protein synthesis (immunofluorescence, Western blot); assay type: cell-based; conditions: Vero cells IF, RD cells Western blot (FIG. 4)
Protocol: Vero cells were seeded in a 96-well black plate at a density of about 1.0×10^4 per well and cultured at 37° C. and 5% CO2 for 24 hours. Then, EV-A71 virus was diluted to the corresponding concentration with cell maintenance medium and added into the 96-well plate (MOI=1). At the same time, the test compounds EIDD-1931 and EIDD-2801, which had been diluted in advance with cell maintenance medium, were added at the final concentrations of 10 μM, 3 μM and 100 μM, 30 μM, respectively. Then the cells were cultured for 16 hours, the liquid was discarded, 100 μL of 4% formaldehyde was added to each well for fixation for 30 minutes, the fixative was discarded, PBS buffer was added, and the antibody was incubated and labeled for imaging.
RD cells were seeded in a 12-well plate at a density of about 1.0×10^5 per well and cultured at 37° C. and 5% CO2 for 24 hours. Then, EV-A71 virus was diluted to the corresponding concentration with cell maintenance medium and added to the 12-well plate so that the virus content in each well was 0.1 MOI. […] After the protein concentration was determined with BCA protein quantification kit, the corresponding volume of 5×SDS Loading Buffer was added and boiled at 100° C. for 10 minutes to fully denature the protein. […]

[2] = test system: RD cells; assay: cytotoxicity test on RD cells; assay type: cell-based, Human; conditions: 3 days
Protocol: Human liver tumor cells (Huh7 cells) used in the experiment were purchased from Chinese National Infrastructure of Cell Line Resource. Human […] cells (RD cells) and African green monkey kidney cells (Vero cells) were purchased from ATCC (Cat. No.: CCL-136 and CCL-81, respectively). The above cells were cultured in a cell culture incubator at 37° C. and 5% CO2. The complete culture medium used for cell growth was DMEM high-glucose culture medium (purchased from Gibco, Cat. […] No.: 16000044) and penicillin-streptomycin (purchased from Gibco, Cat. No.: 2321152). The maintenance culture medium used for cell culture was DMEM high-glucose culture medium supplemented with 2% FBS and penicillin-streptomycin. H strain of EV-A71 was purchased from ATCC (Cat. No.: VR-1432). […] The microplate reader, model Spectra Max M5, was purchased from Molecular Devices. […] Finally, the luminescence value of each well was measured using the microplate reader. The inhibition rate of the test compounds at each dilution was calculated as follows: [formula] […] The half-cytotoxic concentrations (CC50) of the test compounds were calculated using the same method, and the select index (SI) was calculated based on EC50 and CC50: SI=CC50/EC50.

[3] = test system: EV-A71; assay: protection of 1-day-old ICR suckling mice with lethal EV-A71 infection; assay type: in vivo; conditions: for protective effect on ICR suckling mice inoculated with a lethal dose of EV-A71: 200, 66.6, 22.2, 7.41 mg/kg intraperitoneally once per day for 7 days
Protocol: 10 litters of 1-day-old ICR offspring female mice were randomly divided into 10 groups, namely, virus control group (2 groups), EIDD-1931 administration group (4 groups), and EIDD-2801 administration group (4 groups). The dosages of EIDD-1931 and EIDD-2801 were 200 mg/kg, 66.6 mg/kg, 22.2 mg/kg, and 7.41 mg/kg, respectively. Each mouse was challenged with 10^6 PFU intraperitoneally, and administrated the drug intraperitoneally 4 hours later. The mice of virus control group were administrated the drug solvent. And then, the drug was administered once per day for 7 consecutive days. The mice were weighed, and the survival and weight changes in the mice were recorded every day.
Log-Rank was used to calculate the statistical significance of the survival curve. p<0.05 indicated statistical significance.

[4] = test system: CV-A16 190-D1; assay: CPE protection, CV-A16 190-D1 strain; assay type: cell-based; conditions: for EC50: CV-A16 190-D1, RD cells
[5] = test system: EV-D68 STL-2014-12; assay: CPE protection, EV-D68 STL-2014-12 strain; assay type: cell-based; conditions: for EC50: EV-D68 STL-2014-12, RD cells
[6] = test system: CV-A6 TW-2007-00141; assay: CPE protection, CV-A6 TW-2007-00141 strain; assay type: cell-based; conditions: CV-A6 TW-2007-00141, RD cells

Row | Compound | inhibition of production of EV-A71 VP1 protein [1] | CC50 [2] [µM] | time within which the mice died ([3]; 7.41 mg/kg intraperitoneally) [days] | survival rate ([3]; 22.2 mg/kg intraperitoneally) [%] | protection from the lethal dose of EV-71 virus ([3]; 66.6 mg/kg intraperitoneally) | protection from the lethal dose of EV-71 virus ([3]; 200 mg/kg intraperitoneally) | protective effect on ICR suckling mice inoculated with a lethal dose of EV-A71 [3] | weight gain of surviving mice ([3]; 200, 66.6 and 22.2 mg/kg) | EC50 [4] [µM] | EC50 [5] [µM] | EC50 [6] [µM] | time within which the mice died ([3]; 22.2 mg/kg intraperitoneally) [days] | survival rate ([3]; 66.6 mg/kg intraperitoneally) [%] | survival rate ([3]; 200 mg/kg intraperitoneally) [%] | inhibitory activity against CV-A16 [4] | inhibitory activity against EV-V68 [5]
1 | O=c1nc(NO)ccn1[C@@H]1O[C@H](CO)[C@@H](O)[C@H]1O [EIDD-1931] | dose-dependently inhibit | 80.47 ± 0.02 | ≤ 12 | 60 | completely protect | completely protect | dose-dependent protective effect | good weight gain | 4.14 ± 0.27 | 9.69 ± 0.04 | 17.7 ± 0.38 |  |  |  |  | 
2 | CC(C)C(=O)OC[C@H]1O[C@@H](n2cc/c(=N\O)[nH]c2=O)[C@H](O)[C@@H]1O [EIDD-2801] | dose-dependently inhibit | > 100 | ≤ 13 |  |  |  | dose-dependent protective effect |  | 44.9 ± 4.23 | 86.2 ± 9.17 | > 100 | ≤ 13 | 67 | 100 | low inhibitory activity | low inhibitory activity
